{"source": "patent US8367084B2", "about": "“Oily base for a cosmetic and cosmetic comprising the same” (Kokyu Alcohol Kogyo Co., Ltd., priority 2009, dated 2013)", "type_in_all_cases": "physicochemical", "key": {"[1]": {"assay": "Hydroxyl value (Cosmetics Raw Material Standard 24)", "details": "ester compound; unit assumed", "text": "Hydroxyl value: determined in accordance with “Cosmetics Raw Material Standard 24, Method for the Determination of a Hydroxyl Value”."}, "[2]": {"assay": "Compatibility of the ester compound with oil agents", "set-up": "key to Compatibility: G: the compound exhibits the compatibility with both the hydrocarbon oil and silicone oil; M: the compound exhibits the compatibility with either of the two; B: the compound exhibits the compatibility with neither of the two", "details": "for Compatibility: 90% by mass ester compound in 10% by mass oil agent, appearance after one week at 25 degrees C.; for compatibility with the oil agents (in words): ester compound", "method": "Compatibility: The oil agents used were as follows:\nHydrocarbon oil: Squalane (OLIVE SQUALANE from Kokyu Alcohol Kogyo Co., Ltd.)\nSilicone oil: Cyclomethicone (DOWCORNING TORAY SH 245 FLUID, trademark, from Dow Corning Toray Co., Ltd.)\nIn 10% by mass of each oil agent indicated above were dissolved 90% by mass of the ester compound obtained from Preparation Examples and Comparative Preparation Examples in a hot water bath at a temperature of 80 to 90 degrees C. for 60 minutes under stirring. Next, the mixture obtained was cooled to 50 degrees C. under stirring and then placed in a temperature-controlled room at 25 degrees C. The appearance after one week was evaluated visually. The indication of the evaluation results is as follows."}, "[3]": {"assay": "Viscosity by Brookfield Viscometer DV-II+", "details": "Spindle No. 2, 12 rpm", "method": "Viscosity: determined by Brookfield Viscometer DV-II+ (Spindle No. 2, 12 rpm, 25 degrees C.)."}, "[4]": {"assay": "Acid value (Cosmetics Raw Material Standard 18)", "details": "ester compound", "text": "Acid value: determined in accordance with “Cosmetics Raw Material Standard 18, Method for the Determination of an Acid Value”."}}}
{"compound": "CCCCC(CC)C(=O)OCC(COC(=O)C(CC)CCCC)(COC(=O)C(CC)CCCC)COC(=O)C(CC)CCCC", "note": "(stereo not shown) [Com. Prep. Ex. 2, pentaerythrityl tetraethylhexanoate]", "values": [{"measurement": "Hydroxyl value", "setting": "[1]", "result": 1.25, "unit": "mg KOH/g"}, {"measurement": "Compatibility", "setting": "[2]", "result": "M"}, {"measurement": "compatibility with the oil agents (in words)", "setting": "[2]", "result": "not good"}, {"measurement": "Viscosity in mPa · s at 25° C.", "setting": "[3]", "result": 109, "unit": "mPa · s"}, {"measurement": "Acid value", "setting": "[4]", "result": 0.02}]}
{"compound": "pentaerythrityl tetraisostearate [Com. Prep. Ex. 3]", "values": [{"measurement": "Hydroxyl value", "setting": "[1]", "result": 0.59, "unit": "mg KOH/g"}, {"measurement": "Compatibility", "setting": "[2]", "result": "M"}, {"measurement": "compatibility with the oil agents (in words)", "setting": "[2]", "result": "not good"}, {"measurement": "Viscosity in mPa · s at 25° C.", "setting": "[3]", "result": 290, "unit": "mPa · s"}, {"measurement": "Acid value", "setting": "[4]", "result": 0.38}]}
